Measured values published in article PMC9966578, “Barbamide Displays Affinity for Membrane-Bound Receptors and Impacts Store-Operated Calcium Entry in Mouse Sensory Neurons” (Marine Drugs, 2023).

What was measured:
Assay in all cases: radioligand binding assay (NIMH PDSP), secondary screen
[1] = target: T1, dopamine transporter (DAT) (Homo sapiens, UniProt Q01959)
T1 construct: gene SLC6A3

[2] = target: T2, dopamine D3 receptor (D3R) (Homo sapiens, UniProt P35462)
T2 construct: gene DRD3

[3] = target: T3, kappa opioid receptor (KOR) (Homo sapiens, UniProt P41145)
T3 construct: gene OPRK1
T3 sequence (P41145 whole entry): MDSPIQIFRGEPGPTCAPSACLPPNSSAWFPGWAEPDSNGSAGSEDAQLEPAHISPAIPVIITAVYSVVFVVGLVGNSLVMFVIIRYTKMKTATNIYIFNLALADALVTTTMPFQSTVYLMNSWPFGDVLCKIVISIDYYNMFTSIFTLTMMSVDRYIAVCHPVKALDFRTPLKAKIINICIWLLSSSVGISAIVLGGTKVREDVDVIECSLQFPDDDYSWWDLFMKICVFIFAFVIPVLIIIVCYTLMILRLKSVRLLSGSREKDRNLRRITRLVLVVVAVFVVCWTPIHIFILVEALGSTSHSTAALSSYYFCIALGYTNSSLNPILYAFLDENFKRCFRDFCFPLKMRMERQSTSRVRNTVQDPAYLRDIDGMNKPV

T1 sequence (Q01959 whole entry): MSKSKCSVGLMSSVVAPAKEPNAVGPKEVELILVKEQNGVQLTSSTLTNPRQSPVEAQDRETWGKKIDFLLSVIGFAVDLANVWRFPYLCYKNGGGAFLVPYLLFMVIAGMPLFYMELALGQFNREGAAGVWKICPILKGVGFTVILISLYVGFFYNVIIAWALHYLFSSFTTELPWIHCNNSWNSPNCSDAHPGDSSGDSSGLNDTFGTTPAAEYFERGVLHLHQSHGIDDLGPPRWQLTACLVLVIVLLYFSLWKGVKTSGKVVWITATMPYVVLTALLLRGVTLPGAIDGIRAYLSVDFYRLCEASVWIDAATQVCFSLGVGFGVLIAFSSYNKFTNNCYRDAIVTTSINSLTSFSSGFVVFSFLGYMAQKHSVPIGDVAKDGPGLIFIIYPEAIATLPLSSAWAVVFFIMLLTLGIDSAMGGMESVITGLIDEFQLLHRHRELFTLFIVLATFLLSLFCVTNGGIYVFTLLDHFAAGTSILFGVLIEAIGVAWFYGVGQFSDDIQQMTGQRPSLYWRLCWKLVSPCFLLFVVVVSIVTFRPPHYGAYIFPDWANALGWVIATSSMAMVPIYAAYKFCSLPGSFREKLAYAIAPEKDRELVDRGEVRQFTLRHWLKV
T2 sequence (P35462 whole entry): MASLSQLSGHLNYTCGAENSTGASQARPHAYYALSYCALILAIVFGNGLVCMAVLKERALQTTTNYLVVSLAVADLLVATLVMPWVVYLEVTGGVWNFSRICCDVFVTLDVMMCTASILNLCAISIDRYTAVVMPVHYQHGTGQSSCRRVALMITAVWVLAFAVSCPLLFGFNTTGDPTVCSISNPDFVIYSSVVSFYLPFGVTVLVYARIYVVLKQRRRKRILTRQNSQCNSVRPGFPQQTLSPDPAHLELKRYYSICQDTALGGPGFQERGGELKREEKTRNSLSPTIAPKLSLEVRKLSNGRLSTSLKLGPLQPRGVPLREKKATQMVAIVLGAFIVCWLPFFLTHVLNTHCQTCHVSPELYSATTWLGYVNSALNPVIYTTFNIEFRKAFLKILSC

SMILES: CO/C(=C/C(=O)N(C)C(Cc1ccccc1)c1nccs1)CC(C)C(Cl)(Cl)Cl (stereo not drawn) [compound 1, barbamide]
- Ki [1]: 3100 nM
- Ki [2]: 446 nM
- Ki [3]: 79.1 nM
